Columns and labels:
[1] = target: T1, CYP1A2 (Homo sapiens, UniProt P05177); experiment: CYP1A2 inhibition (fluorescent substrate CEC); assay type: in vitro ADME; details: read-out: Cyp IC50 1A2
T1 sequence (P05177 1-516): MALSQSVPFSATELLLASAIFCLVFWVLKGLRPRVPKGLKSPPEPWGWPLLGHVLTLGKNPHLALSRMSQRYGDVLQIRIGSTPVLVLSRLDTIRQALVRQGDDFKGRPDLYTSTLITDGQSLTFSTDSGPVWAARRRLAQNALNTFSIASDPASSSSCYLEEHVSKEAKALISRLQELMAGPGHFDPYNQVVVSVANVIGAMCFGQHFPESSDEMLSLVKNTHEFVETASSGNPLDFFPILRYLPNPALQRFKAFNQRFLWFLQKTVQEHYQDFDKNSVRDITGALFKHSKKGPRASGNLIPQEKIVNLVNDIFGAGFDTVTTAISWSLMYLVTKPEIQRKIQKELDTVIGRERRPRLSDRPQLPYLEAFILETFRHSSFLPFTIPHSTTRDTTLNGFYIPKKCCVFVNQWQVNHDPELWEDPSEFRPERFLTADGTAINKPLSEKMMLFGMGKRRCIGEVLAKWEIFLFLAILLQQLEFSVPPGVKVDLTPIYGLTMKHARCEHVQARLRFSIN
Summary of the method: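 10-pt 1:1 dilution series (from 100 mM DMSO stock) in NADPH regen cofactor mix, 5% MeCN; 10 min preincubation at 37 °C. Enzyme reaction 37 °C: 1A2 15 min, 2C9 45 min, 2C19/2D6 30 min. Fluorescence readout; IC50 fit.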

[2] = test system: SKNSH cells; experiment: SKNSH (human neuroblastoma) cell proliferation assay (ATPlite); assay type: cell-based; details: SK-N-SH, read-out: Inhibition of Cell Proliferation IC50, SKNSH
Summary of the method: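 Fms/Trk inhibitor efficacy was tested by proliferation of SKNSH neuroblastoma cells. After 3 days of compound exposure at 37° C. in 5% CO2, 20 μL per well of ATPlite 1 step reagent was added, plates sat 10 minutes at room temperature, and luminescence, proportional to cell number, was read on a Safire reader to derive IC50.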

IC50 [1] [µM] | IC50 [2] [µM] | SMILES
> 10 | – | Cc1cnc2[nH]cc(Cc3ccc(NC4CCCCC4)nc3F)c2c1 [Compound P-3008, cyclohexyl-[6-fluoro-5-(5-methyl-1H-pyrrolo[2,3-b]pyridin-3-ylmethyl)-pyridin-2-yl]-amine]
5 to 10 | – | Fc1nc(Nc2ccc(C3CC3)nc2)ccc1Cc1c[nH]c2ncnc(C3CC3)c12 [Compound P-4041, (6-Cyclopropyl-pyridin-3-yl)-[5-(4-cyclopropyl-7H-pyrrolo[2,3-d]pyrimidin-5-ylmethyl)-6-fluoro-pyridin-2-yl]-amine]
– | < 10 | Nc1ncnc2[nH]cc(C(=O)c3ccc(NC4CCC(F)(F)CC4)nc3Cl)c12 [Compound P-4046, (4-amino-7H-pyrrolo[2,3-d]pyrimidin-5-yl)-[2-chloro-6-[(4,4-difluorocyclohexyl)amino]-3-pyridyl]methanone]
> 10 | – | CC(C)=CNc1ncnc2[nH]cc(C(=O)c3ccc(NC4CCC(F)(F)CC4)nc3Cl)c12 [Compound P-4047, [2-chloro-6-[(4,4-difluorocyclohexyl)amino]-3-pyridyl]-[4-(2-methylprop-1-enylamino)-7H-pyrrolo[2,3-d]pyrimidin-5-yl]methanone]
> 10 | < 1 | Nc1ncnc2[nH]cc(C(=O)c3ccc(Nc4ccc(C5CC5)nc4)nc3F)c12 [Compound P-4048, (4-amino-7H-pyrrolo[2,3-d]pyrimidin-5-yl)-[6-[(6-cyclopropyl-3-pyridyl)amino]-2-fluoro-3-pyridyl]methanone]
> 10 | < 1 | CC(C)(O)CNc1ncnc2[nH]cc(C(=O)c3ccc(Nc4ccc(C5CC5)nc4)nc3F)c12 [Compound P-4049, [6-[(6-cyclopropyl-3-pyridyl)amino]-2-fluoro-3-pyridyl]-[4-[(2-hydroxy-2-methyl-propyl)amino]-7H-pyrrolo[2,3-d]pyrimidin-5-yl]methanone]
> 10 | < 1 | CCNc1ncnc2[nH]cc(C(=O)c3ccc(NC4CCC(F)(F)CC4)nc3Cl)c12 [Compound P-4050, [2-chloro-6-[(4,4-difluorocyclohexyl)amino]-3-pyridyl]-[4-(ethylamino)-7H-pyrrolo[2,3-d]pyrimidin-5-yl]methanone]
> 10 | < 1 | CCNc1ncnc2[nH]cc(C(=O)c3cnc(NC4CCC(F)(F)CC4)c(F)c3)c12 [Compound P-4051, [6-[(4,4-difluorocyclohexyl)amino]-5-fluoro-3-pyridyl]-[4-(ethylamino)-7H-pyrrolo[2,3-d]pyrimidin-5-yl]methanone]
> 10 | > 1 | O=C(c1cnc(NC2CCC(F)(F)CC2)c(F)c1)c1c[nH]c2ncnc(NCC(F)(F)F)c12 [Compound P-4052, [6-[(4,4-difluorocyclohexyl)amino]-5-fluoro-3-pyridyl]-[4-(2,2,2-trifluoroethylamino)-7H-pyrrolo[2,3-d]pyrimidin-5-yl]methanone]
> 10 | < 1 | O=C(c1cnc(NC2CCC(F)(F)CC2)c(F)c1)c1c[nH]c2ncnc(NC3CC3)c12 [Compound P-4053, [4-(cyclopropylamino)-7H-pyrrolo[2,3-d]pyrimidin-5-yl]-[6-[(4,4-difluorocyclohexyl)amino]-5-fluoro-3-pyridyl]methanone]
> 10 | < 10 | CNc1ncnc2[nH]cc(C(=O)c3cnc(NC4CCC(F)(F)CC4)c(F)c3)c12 [Compound P-4054, [6-[(4,4-difluorocyclohexyl)amino]-5-fluoro-3-pyridyl]-[4-(methylamino)-7H-pyrrolo[2,3-d]pyrimidin-5-yl]methanone]

— patent US8901118B2, “Compounds and methods for kinase modulation, and indications therefor” (Plexxikon Inc., priority 2010, dated 2014)
